Reference: US12383526B2, “Optimized sigma-1 agonist method of responder selection and treatment” (ANAVEX LIFE SCIENCES CORP., priority 2018, dated 2025)
Marks after values point to notes of the source that are not given here.

Legend:
[1] = Plasma concentrations of ANAVEX2-73 and its metabolite ANAVEX19-144 in the 57-week study; assay type: in vivo, human; conditions: for Mean Concentration ANAVEX2-73, Max / Mean Concentration ANAVEX2-73, Mean / Mean Concentration ANAVEX2-73, Min: plasma
Description: A pharmacokinetics analysis was performed during Part A only. Blood samples were drawn at 12 and 11 time points after the first oral or IV administration during the first and second periods of Part A, respectively. Pharmacokinetic parameters included in the analysis consisted of maximum plasma drug concentration (C max), time to maximum plasma concentration during a dosing interval (t max), area under the curve from the time of dosing to the last measurable concentration (AUC0-t), mean elimination half-life (t ½), and the total body clearance for extravascular administration divided by the fraction of dose absorbed (CL/F).
Steady-state plasma levels of ANAVEX2-73 and its metabolite ANAVEX19-144 were assessed in Part B through blood samples collection at pre-specified time points (Weeks 12, 26, 36 and 48). Mean concentration values in ng/mL of each patient were then averaged. Table 14 illustrates mean plasma concentrations of ANAVEX2-73 and its metabolite ANAVEX19-144 during the 57-week study study.

SIGMAR1 = molecular target: T1, SIGMAR1 (Mus musculus, UniProt O55242); conditions: mice; cited from earlier work
T1 construct: from tissue; host or cells: living mice (in vivo PET)
T1 sequence (O55242 whole entry): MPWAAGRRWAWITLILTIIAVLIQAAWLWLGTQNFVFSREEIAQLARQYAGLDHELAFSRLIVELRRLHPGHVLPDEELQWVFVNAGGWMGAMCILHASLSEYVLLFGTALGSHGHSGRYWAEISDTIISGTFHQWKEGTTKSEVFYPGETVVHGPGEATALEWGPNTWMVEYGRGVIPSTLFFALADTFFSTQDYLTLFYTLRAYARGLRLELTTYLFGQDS

[2] = system: subjects with mild-to-moderate AD; assay: MMSE (Mini Mental State Examination) change from baseline, 57-week Phase 2a study and 208-week extension study; assay type: in vivo, human; conditions: for MMSE Cohen's d: week 57, compared to standard of care
Source text: The present study integrates and analyzes data and samples from two consecutive clinical trials: 57-week study and 208-week study. 57-week study was a multicenter Phase 2a clinical trial of the drug ANAVEX2-73 that recruited a sample of 32 subjects with mild-to-moderate AD. It consisted of two parts: Part A was a simple randomized, open-label, two-period, cross-over, adaptive trial lasting up to 5 weeks. Each period involved one specific administration route and two possible dose levels: in one period the oral dose (30 mg or 50 mg) was administrated and in the other period an intravenous (IV) form (3 mg or 5 mg) was administered, making a total of 8 possible dose administration schemes in Part A (details available in FIG. 2A). The two periods were separated by a wash-out period of 12 days where no dose was given.
Part B, following immediately after Part A, was an open-label extension of the oral daily dose for an additional 52 weeks. The primary endpoint of 57-week study was to establish the safety and tolerability of the drug. Secondary endpoints aimed at establishing the relationship between dosing regimen and pharmacodynamics-exploratory efficacy outcomes of cognition and function. Cognition was assessed by the Mini Mental State Examination (MMSE), while functional abilities by the Alzheimer's Disease Co-operative Study—Activities of Daily Living Inventory (ADCS-ADL). Additional cognitive measures included the Cogstate Brief Battery (CBB), and functional measures of Electroencephalography and Event-Related Potential (EEG and ERP). Part B continued an adaptive oral administration scheme. Table 12 summarizes mean oral dose administration during the 57-week study study.
Due to favorable safety and tolerability profile of the 57-week study (Table 2), and in response to requests from patients and caregivers, a 208-week open-label extension study (208-week study) was carried out immediately after completion of 57-week study Part B. 208-week study enrolled the 24 subjects who completed Part B and applied similarly an adaptive daily oral administration scheme. ANAVEX2-73-003 involves continuous evaluation of safety and efficacy as measured by the MMSE and ADCS-ADL. At week 148 (interim time point for analyses), data on the subjects remaining in the study (n=21) was analyzed for efficacy outcomes. This report was drafted using data available at week 148, while ANAVEX2-73-003 is still ongoing.
Exploratory clinical efficacy in this study was defined as change from baseline of each patient's cognitive (MMSE) and functional ability (ADCS-ADL) scores. The MMSE57 is a widely used, validated instrument in clinical AD research, including as a cognitive outcome measure in drug trials. The range of the scale is from 0 to 30, with a higher score indicating higher cognitive function. The ADCS-ADL58 is undertaken in a structured caregiver interview format and assesses performance in activities of daily living of patients with AD. The scale is from 0 to 78, with a higher score indicating greater function. The ADCS-ADL has shown to have good test-retest reliability 59. The MMSE and the ADCS-ADL were assessed during pre-specified clinical site visits across 14 different time points during the 57-week study (Weeks 0 and 5 in Part A; Weeks 17, 31, 41, 53, and 57 in Part B), and 208-week study (Weeks 70, 83, 96, 109, 122, 135, and 148) studies.
Corresponding Delta scores were calculated using the difference between values at each visit and at baseline for each individual patient, with a focus on Week 57. In addition, to lower the impact of noise in MMSE and ADCS-ADL scores, a Slope was estimated using a linear regression across all available time points for each individual patient. The derived scores describe the progression of exploratory efficacy data from baseline at several specific time points (Deltas) and over a set period of time (Slope). […]

[3] = Absence of COMT_L146fs variant & Baseline MMSE ≥20, N 11
[4] = Absence of COMT_L146fs variant, N 16
[5] = Absence of SIGMAR1_Q2P variant, N 16
[6] = Absence of SIGNAR1_Q2P variant & Baseline MMSE ≥20, N 11

With CN(C)CC1CCOC1(c1ccccc1)c1ccccc1.Cl (stereo not drawn) [ANAVEX2-73, tetrahydro-N,N-dimethyl-2,2-diphenyl-3-furanmethanamine hydrochloride] as the compound, how does the “plasma concentration versus dose in the present study” value ([1]; 57-week study Part A, FIG. 2B) read?
The value was “dose-dependent increase”.

What about the “Mean Concentration ANAVEX2-73, Max” value ([1]; Part A1 (Day 1-2)) of the same compound?
The value was 15.9 ng/mL.

And the “Mean Concentration ANAVEX2-73, Mean” value ([1]; Part A1 (Day 1-2))?
Its value is 5.25 ng/mL.

What about the “Mean Concentration ANAVEX2-73, Min” value ([1]; Part A1 (Day 1-2: within 2 days of first oral dose), N = 32 patients) of the same compound?
The value was 0.84 ng/mL.

What about the “Mean Concentration ANAVEX2-73, Max” value ([1]; Part A2 (Day 3-12)) of the same compound?
Its value is 8.44 ng/mL.

And the “Mean Concentration ANAVEX2-73, Mean” value ([1]; Part A2 (Day 3-12))?
The value was 2.11 ng/mL.

And the “Mean Concentration ANAVEX2-73, Min” value ([1]; Part A2 (Day 3-12))?
Its value is 0.03 ng/mL.

And the “Mean Concentration ANAVEX2-73, Max” value ([1]; Part B (Week 5 to Week 57))?
The value was 11.58 ng/mL.

And the “Mean Concentration ANAVEX2-73, Mean” value ([1]; Part B (Week 5 to Week 57))?
Its value is 3.8 ng/mL.

What about the “Mean Concentration ANAVEX2-73, Min” value ([1]; Part B (Week 5 to Week 57)) of the same compound?
Its value is 0 ng/mL.

What about the “target binding by PET scan” value (SIGMAR1) of the same compound?
The value was “directly bind its target”.

And the “MMSE Mean Δ at 57 weeks” value [2, 3]?
Its value is 0.18 ± 4.35.

What about the “MMSE Mean Δ at 57 weeks” value [2, 4] of the same compound?
The value was −0.62 ± 4.05.

What about the “MMSE Mean Δ at 57 weeks” value ([2]; Absence of SIGMAR1_Q2P variant & Absence of COMT_L145fs variant & Baseline MMSE ≥20, N 10) of the same compound?
Its value is 0.50 ± 4.45.

And the “MMSE Mean Δ at 57 weeks” value [2, 5]?
Its value is −0.62 ± 4.11.

What about the “MMSE Mean Δ at 57 weeks” value [2, 6] of the same compound?
Its value is 0.27 ± 4.29.

And the “MMSE Mean Δ at 57 weeks” value ([2]; All, N 21)?
The value was −1.52 ± 4.15.

And the “MMSE Mean Δ at 57 weeks” value ([2]; Baseline MMSE ≥20, N 13)?
Its value is −0.15 ± 4.06.

What about the “favorable difference in adjusted MMSE, higher concentration arm compared with low/medium arm” value ([2]; MMRM-LME, over 148 weeks) of the same compound?
Its value is 78%.

And the “MMSE Cohen's d” value [2, 3]?
Its value is 0.98**.

And the “MMSE Cohen's d” value [2, 4]?
Its value is 0.81**.

What about the “MMSE Cohen's d” value [2, 5] of the same compound?
The value was 0.81**.

And the “MMSE Cohen's d” value [2, 6]?
The value was 1.01**.

What about the “MMSE Cohen's d” value ([2]; Baseline MMSE ≥20, N 13) of the same compound?
The value was 0.94**.
